Results from the SangsterLogP compilation.

`COc1ccc(C=NN=c2ccn(CCCCCc3ccccc3)cc2)cc1` and `COc1ccc(C=NN=c2ccn(CCCCc3ccccc3)cc2)cc1` are within 0.2 log units of each other in logP: 3.5 for the first, 3.4 for the second.

`C(=NN=c1ccn(CCc2ccccc2)cc1)c1cccc2ccccc12` and `C(=NN=c1ccn(CCCc2ccccc2)cc1)c1cccc2ccccc12` are the same in logP: 4.3 for the first, 4.3 for the second.

`Clc1ccc(C=NN=c2ccn(CC=Cc3ccccc3)cc2)cc1` and `Cc1ccc(C=NN=c2ccn(CC=Cc3ccccc3)cc2)cc1` are within 0.2 log units of each other in logP: 3.9 for the first, 4 for the second.

`Cc1cccc(Cn2ccc(=NN=CCCc3ccccc3)cc2)c1C` and `Brc1ccccc1Cn1ccc(=NN=CCCc2ccccc2)cc1` are the same in logP: 3.9 for the first, 3.9 for the second.

`C(CCc1ccccc1)=NN=c1ccn(CCCc2ccccc2)cc1` and `C(Cc1ccccc1)=NN=c1ccn(CCCc2ccccc2)cc1` are within 0.2 log units of each other in logP: 4 for the first, 3.9 for the second.

Going from `CCCCCCn1ccc(=NN=Cc2ccc(C)cc2)cc1` to `Cc1ccc(C=NN=c2ccn(CCCCCc3ccccc3)cc2)cc1`, the logP rises from 3.8 to 4.1.

`Cc1ccccc1C=NN=c1ccn(Cc2ccccc2)cc1` and `Clc1ccccc1C=NN=c1ccn(Cc2ccccc2)cc1` are within 0.2 log units of each other in logP: 3.9 for the first, 3.8 for the second.

`Cc1ccc(C=NN=c2ccn(Cc3c(Cl)cccc3Cl)cc2)cc1` and `Clc1cccc(Cl)c1Cn1ccc(=NN=Cc2ccc(Br)cc2)cc1` are the same in logP: 3.9 for the first, 3.9 for the second.

Compared with `Cc1ccccc1C=NN=c1ccn(CCCc2ccccc2)cc1`, `Oc1ccccc1C=NN=c1ccn(CCCc2ccccc2)cc1` is lower in logP: 4 for the first, 3.3 for the second.

Compared with `C(=NN=c1ccn(Cc2ccc3ccccc3c2)cc1)c1cccc2ccccc12`, `C(=NN=c1ccn(Cc2ccccc2)cc1)c1cccc2ccccc12` is lower in logP: 4.4 for the first, 4.2 for the second.

`Cc1ccc(C=NN=c2ccn(CCCCc3ccccc3)cc2)cc1` and `Cc1ccc(C=NN=c2ccn(CCCc3ccccc3)cc2)cc1` are the same in logP: 4 for the first, 4 for the second.

First: Cc1cccc(C=NN=c2ccn(CCCc3ccccc3)cc2)c1
Second: Fc1cccc(C=NN=c2ccn(CCCc3ccccc3)cc2)c1
The logP of the first is higher: 4 for the first, 3.8 for the second.

`Fc1ccc(Cn2ccc(=NN=Cc3ccc(Cl)cc3)cc2)cc1` and `Fc1ccc(C=NN=c2ccn(Cc3ccccc3)cc2)cc1` are within 0.2 log units of each other in logP: 3.8 for the first, 3.7 for the second.

`O=[N+]([O-])c1ccc(C=NN=c2ccn(CCCc3ccccc3)cc2)cc1` and `O=[N+]([O-])c1ccc(C=NN=c2ccn(CCCCc3ccccc3)cc2)cc1` are within 0.2 log units of each other in logP: 3.8 for the first, 3.9 for the second.

`Brc1ccc(C=NN=c2ccn(Cc3ccccc3)cc2)cc1` and `Cc1ccc(C=NN=c2ccn(Cc3ccccc3)cc2)cc1` are the same in logP: 3.9 for the first, 3.9 for the second.

`COc1cccc(OC)c1C=NN=c1ccn(CCCCCc2ccccc2)cc1` and `COc1cccc(OC)c1C=NN=c1ccn(CCCCc2ccccc2)cc1` are within 0.2 log units of each other in logP: 3.5 for the first, 3.4 for the second.

`C(Cc1ccccc1)=NN=c1ccn(Cc2ccccc2)cc1` and `C(CCc1ccccc1)=NN=c1ccn(Cc2ccccc2)cc1` are within 0.2 log units of each other in logP: 3.9 for the first, 4 for the second.

Going from `Cc1cccc(C=NN=c2ccn(CCCN3C(=O)c4ccccc4C3=O)cc2)c1` to `Cc1ccc(C=NN=c2ccn(CCCN3C(=O)c4ccccc4C3=O)cc2)cc1`, the logP falls from 3.8 to 3.6.

`O=[N+]([O-])c1ccc(C=NN=c2ccn(Cc3ccccc3)cc2)cc1` and `O=[N+]([O-])c1ccc(C=NN=c2ccn(CCc3ccccc3)cc2)cc1` are within 0.2 log units of each other in logP: 3.8 for the first, 3.9 for the second.

`Clc1cccc(Cl)c1C=NN=c1ccn(CCc2ccccc2)cc1` and `Clc1cccc(Cl)c1C=NN=c1ccn(CCCCc2ccccc2)cc1` are the same in logP: 4 for the first, 4 for the second.

First: Cc1cccc(C)c1C=NN=c1ccn(Cc2c(Cl)cccc2Cl)cc1
Second: Cc1ccccc1C=NN=c1ccn(Cc2c(Cl)cccc2Cl)cc1
The logP of the first is lower: 3.3 for the first, 3.9 for the second.

`C(=NN=c1ccn(CCc2ccccc2)cc1)c1c2ccccc2cc2ccccc12` and `C(=NN=c1ccn(CCCc2ccccc2)cc1)c1c2ccccc2cc2ccccc12` are the same in logP: 4.4 for the first, 4.4 for the second.

`Fc1ccc(Br)cc1Cn1ccc(=NN=Cc2ccc(Cl)cc2)cc1` and `Clc1ccc(C=NN=c2ccn(Cc3ccccc3Br)cc2)cc1` are within 0.2 log units of each other in logP: 4 for the first, 3.9 for the second.

`Cc1cccc(C)c1C=NN=c1ccn(CCCCc2ccccc2)cc1` and `Cc1cccc(C)c1C=NN=c1ccn(CCCCCc2ccccc2)cc1` are within 0.2 log units of each other in logP: 3.3 for the first, 3.4 for the second.

`COc1ccccc1C=NN=c1ccn(CCc2ccccc2)cc1` and `COc1ccccc1C=NN=c1ccn(CCCc2ccccc2)cc1` are the same in logP: 3.4 for the first, 3.4 for the second.

`COc1ccccc1C=NN=c1ccn(Cc2ccccc2)cc1` and `Oc1ccccc1C=NN=c1ccn(Cc2ccccc2)cc1` are within 0.2 log units of each other in logP: 3.3 for the first, 3.2 for the second.

`COc1ccc(C=NN=c2ccn(CCCc3ccccc3)cc2)cc1` and `COc1ccc(C=NN=c2ccn(CCc3ccccc3)cc2)cc1` are the same in logP: 3.4 for the first, 3.4 for the second.

`C(=NN=c1ccn(CCCCc2ccccc2)cc1)c1cccc2ccccc12` and `C(=NN=c1ccn(CCCCCc2ccccc2)cc1)c1cccc2ccccc12` are within 0.2 log units of each other in logP: 4.3 for the first, 4.4 for the second.

`Clc1cccc(Cl)c1C=NN=c1ccn(CCCCCc2ccccc2)cc1` and `Clc1cccc(Cl)c1C=NN=c1ccn(Cc2ccccc2)cc1` are within 0.2 log units of each other in logP: 4 for the first, 3.9 for the second.

Going from `Fc1cccc(C=NN=c2ccn(Cc3ccccc3Br)cc2)c1` to `Fc1cccc(C=NN=c2ccn(Cc3ccccc3)cc2)c1`, the logP falls from 3.9 to 3.7.

First: COc1ccc(C=NN=c2ccn(Cc3ccccc3)cc2)cc1
Second: Clc1ccc(C=NN=c2ccn(Cc3ccccc3)cc2)cc1
The logP of the first is lower: 3.3 for the first, 3.8 for the second.

`C(=NN=c1ccn(CCCCc2ccccc2)cc1)c1c2ccccc2cc2ccccc12` and `C(=NN=c1ccn(CCCCCc2ccccc2)cc1)c1c2ccccc2cc2ccccc12` are the same in logP: 4.4 for the first, 4.4 for the second.

`Cc1ccc(C)c(-n2ccc(=NN=Cc3ccc(Cl)cc3)cc2)c1` and `Clc1ccc(C=NN=c2ccn(Cc3ccccc3I)cc2)cc1` are within 0.2 log units of each other in logP: 4 for the first, 3.9 for the second.

Going from `COc1ccc(C=NN=c2ccn(CCCCCN3C(=O)c4ccccc4C3=O)cc2)cc1` to `O=C1c2ccccc2C(=O)N1CCCn1ccc(=NN=Cc2ccc3ccccc3c2)cc1`, the logP rises from 3.4 to 4.1.

`Fc1ccc(C=NN=c2ccn(CCCc3ccccc3)cc2)cc1` and `Brc1ccc(C=NN=c2ccn(CCCc3ccccc3)cc2)cc1` are within 0.2 log units of each other in logP: 3.8 for the first, 3.9 for the second.

`COc1cccc(OC)c1C=NN=c1ccn(-c2c(Cl)cccc2Cl)cc1` and `COc1cccc(OC)c1C=NN=c1ccn(Cc2ccccc2)cc1` are within 0.2 log units of each other in logP: 3.4 for the first, 3.3 for the second.

First: Cc1cccc(C)c1C=NN=c1ccn(Cc2ccccc2)cc1
Second: Cc1cccc(C)c1C=NN=c1ccn(CCc2ccccc2)cc1
The logP of the first is higher: 4 for the first, 3.3 for the second.

`O=[N+]([O-])c1ccc(C=NN=c2ccn(CCCCCc3ccccc3)cc2)cc1` and `Brc1ccc(C=NN=c2ccn(CCCCCc3ccccc3)cc2)cc1` are the same in logP: 4 for the first, 4 for the second.

`Cc1ccc(C=NN=c2ccn(CCc3ccccc3)cc2)cc1` and `Clc1ccc(C=NN=c2ccn(CCCc3ccccc3)cc2)cc1` are within 0.2 log units of each other in logP: 4 for the first, 3.9 for the second.

Going from `COc1ccc(C=NN=c2ccn(CC=Cc3ccccc3)cc2)cc1` to `O=[N+]([O-])c1ccc(C=NN=c2ccn(CC=Cc3ccccc3)cc2)cc1`, the logP rises from 3.4 to 3.8.

First: COc1ccccc1C=NN=c1ccn(Cc2ccc3ccccc3c2)cc1
Second: Cc1ccc(C=NN=c2ccn(Cc3ccc4ccccc4c3)cc2)cc1
The logP of the first is lower: 3.4 for the first, 4 for the second.

`Cc1cccc(C)c1C=NN=c1ccn(CCCc2ccccc2)cc1` and `COc1cccc(OC)c1C=NN=c1ccn(CCCc2ccccc2)cc1` are within 0.2 log units of each other in logP: 3.3 for the first, 3.4 for the second.

`COc1ccccc1C=NN=c1ccn(CC=Cc2ccccc2)cc1` and `COc1ccccc1C=NN=c1ccn(Cc2c(Cl)cccc2Cl)cc1` are within 0.2 log units of each other in logP: 3.5 for the first, 3.4 for the second.

`Fc1ccc(Cn2ccc(=NN=CCCc3ccccc3)cc2)cc1` and `Fc1cc(Br)ccc1Cn1ccc(=NN=CCCc2ccccc2)cc1` are the same in logP: 3.9 for the first, 3.9 for the second.

`Clc1cccc(Cl)c1Cn1ccc(=NN=Cc2c3ccccc3cc3ccccc23)cc1` and `C(=NN=c1ccn(Cc2ccccc2)cc1)c1c2ccccc2cc2ccccc12` are within 0.2 log units of each other in logP: 4.4 for the first, 4.3 for the second.

`C(=NN=c1ccn(CCCc2ccccc2)cc1)c1ccc2ccccc2c1` and `C(=NN=c1ccn(Cc2ccccc2)cc1)c1ccc2ccccc2c1` are within 0.2 log units of each other in logP: 4.3 for the first, 4.2 for the second.

First: Clc1cccc(Cl)c1Cn1ccc(=NN=Cc2cccc3ccccc23)cc1
Second: Clc1ccccc1C=NN=c1ccn(Cc2c(Cl)cccc2Cl)cc1
The logP of the first is higher: 4.3 for the first, 3.9 for the second.

`Clc1ccccc1C=NN=c1ccn(CCCc2ccccc2)cc1` and `Clc1ccccc1C=NN=c1ccn(CCc2ccccc2)cc1` are the same in logP: 3.9 for the first, 3.9 for the second.

Going from `Clc1cccc(Cl)c1C=NN=c1ccn(Cc2c(Cl)cccc2Cl)cc1` to `Oc1ccccc1C=NN=c1ccn(Cc2c(Cl)cccc2Cl)cc1`, the logP falls from 4 to 3.3.

Compared with `O=[N+]([O-])c1ccc(C=NN=c2ccn(Cc3c(Cl)cccc3Cl)cc2)cc1`, `COc1ccc(C=NN=c2ccn(Cc3c(Cl)cccc3Cl)cc2)cc1` is lower in logP: 4 for the first, 3.4 for the second.

`Oc1ccccc1C=NN=c1ccn(CCc2ccccc2)cc1` and `COc1cccc(OC)c1C=NN=c1ccn(CCc2ccccc2)cc1` are within 0.2 log units of each other in logP: 3.3 for the first, 3.4 for the second.

For `Brc1ccc(C=NN=c2ccn(CCCCc3ccccc3)cc2)cc1`, the logP was 3.9.
